As usually defined, the IC50 is the concentration that gives 50% inhibition.

Here are results for 16 compounds from patent US20240246968A1, “SMALL MOLECULE INHIBITORS OF KRAS G12C MUTANT” (Merck Sharp & Dohme LLC, priority 2021, published 2024).

For test [1], the target named is Gppcp-bound recombinant K-Ras4B G12C mutant protein (amino acids 1-169, C51S/C80L/C118S) (Homo sapiens, UniProt P01116, C118S/C51S/C80L/G12C). The test is described as follows: KRASG12C binding assay (LC-MS, compound binding rate). As to conditions: test compound final concentration 0.5 μM, 25° C., 1 hour. Summed up:
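Covalent adduct formation measured by deconvoluted intact-mass LC-MS after 1 h at 25 °C with compound at 0.5 μM final and 50 nM Gppcp-loaded KRAS G12C (residues 1-169, C51S/C80L/C118S). Buffer: TBS, 0.1 mM TCEP, 0.25 mM MgCl2, 50 μM Gppcp. Binding % = one-molecule adduct/(unbound + all adducts), binned A ≥80, B 60–80, C 40–60, D 20–40, E <20.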

For test [2], the target named is T1, interaction between recombinant K-Ras4B G12C mutant protein and cRAF RAS-binding domain (cRAF-RBD) (Homo sapiens, UniProt P01116, G12C).
T1 construct: made in house; host or cells: E. coli
The test is described as follows: Inhibitory activity on interaction between KRAS G12C and cRAF (Alpha technology). The class given is biochemical. As to conditions: GMPPNP-bound KRAS G12C incubated with compound at 25° C. for 1 hour, then cRAF-RBD; Alpha signal. In a few lines:
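Alpha readout of cRAF-RBD (aa 50-132) binding to KRAS G12C (aa 1-169) after 1.5 h RT, following 1 h, 25° C compound preincubation with GMPPNP-bound protein (pH 7.5 Tris, 1 mM MgCl2, TCEP, Tween 20). IC50 fitted from titrations, with GDP-bound KRAS as 100% and DMSO as 0% inhibition.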

Test [3] relates to MIA PaCa-2 cells. Nature of the test: Growth inhibition activity on KRAS-G12C mutant cell line (MIA PaCa-2), CellTiter-Glo 3D. To be noted: MIA PaCa-2, 3-day culture with compound. The class given is cell-based, human. In a few lines:
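Luminescence readout (CellTiter-Glo 3D) after 3 days of compound treatment at 37 °C, 5% CO2, 0.2% final DMSO, gave % growth inhibition versus no-compound wells, from which IC50 (nM) was derived; cells had been plated in 10% FBS RPMI1640 one day before dosing.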

As for `Cc1cc2c(ncn2C)c(Cl)c1-c1cccn2c(C(=O)c3cc(F)c(NC(=O)/C=C/CNC(C)(C)C)c(F)c3)ccc12` (single isomer, unassigned) [Example 13-2, (E)-4-(tert-butylamino)-N-(4-(8-(4-chloro-1,6-dimethyl-1H-benzo[d]imidazol-5-yl)indolizine-3-carbonyl)-2,6-difluorophenyl)but-2-enamide], the binding rate result in test [1] is reported as “A (A binding rate of 80% or more is rated “A”)”. The half-inhibitory concentration (IC50) in test [2] came to 320 nM; in test [3] it was 220 nM.

For the compound `COc1c(-c2cccn3c(C(=O)c4cc(F)c(NC(=O)/C=C/CN[C@H]5CC[C@H](OC)CC5)c(F)c4)ccc23)c(C)cc2c1nc(C)n2C` (single isomer, unassigned) [Example 39-1, (E)-N-(2,6-difluoro-4-(8-(4-methoxy-1,2,6-trimethyl-1H-benzo[d]imidazol-5-yl)indolizine-3-carbonyl)phenyl)-4-(((1r,4r)-4-methoxycyclohexyl)amino)but-2-enamide], the binding rate result in test [1] is on record as “A (A binding rate of 80% or more is rated “A”)”. Moreover, the IC50 in test [2] is 580 nM; in test [3] it was 350 nM.

With `C=Cc1cc(C(=O)c2cc(F)c(NC(=O)/C=C/CNC3(C)CC3)c(F)c2)n2cccc(-c3c(OC)cc4c(nc(C)n4C)c3F)c12` (single isomer, unassigned) [Example 111-1, (E)-N-(2,6-difluoro-4-(8-(4-fluoro-6-methoxy-1,2-dimethyl-1H-benzo[d]imidazol-5-yl)-1-vinylindolizine-3-carbonyl)phenyl)-44-((1-methylcyclopropyl)amino)but-2-enamide], the binding rate result in test [1] was “A (A binding rate of 80% or more is rated “A”)”. The IC50 in test [2] was 8.71 nM; in test [3], 46.5 nM.

Consider `CO[C@H]1CC[C@H](NC/C=C/C(=O)Nc2c(F)cc(C(=O)c3ccc4c(-c5c(C(F)(F)F)cc6c(nc(C)n6C)c5Cl)cccn34)cc2F)CC1` (single isomer, unassigned) [Example 32-2, (E)-N-(4-(8-(4-chloro-1,2-dimethyl-6-(trifluoromethyl)-1H-benzo[d]imidazol-5-yl)indolizine-3-carbonyl)-2,6-difluorophenyl)-4-(((1r,4r)-4-methoxycyclohexyl)amino)but-2-enamide], for which the binding rate result in test [1] is recorded as “A (A binding rate of 80% or more is rated “A”)”. Further, the IC50 in test [2] stood at 420 nM; in test [3] it was 990 nM.

For `Cc1nc2cc(-c3cccn4c(C(=O)c5cc(F)c(NC(=O)/C=C/CN[C@H]6CC[C@@H](F)CC6)c(F)c5)ccc34)c(C(F)(F)F)cc2n1C` [Example 81], the binding rate result in test [1] was “A (A binding rate of 80% or more is rated “A”)”. For the same compound, the concentration for half-maximal inhibition (IC50) came to 70 nM in test [2] and 71 nM in test [3] (Homo sapiens, MIA PaCa-2, 72 h).

`C=Cc1cc(C(=O)c2cc(F)c(NC(=O)/C=C/CNC3(C)CC3)c(F)c2)n2cccc(-c3c(OC)cc4c(nc(C)n4C)c3F)c12` (single isomer, unassigned) [Example 111-2, (E)-N-(2,6-difluoro-4-(8-(4-fluoro-6-methoxy-1,2-dimethyl-1H-benzo[d]imidazol-5-yl)-1-vinylindolizine-3-carbonyl)phenyl)-44-((1-methylcyclopropyl)amino)but-2-enamide]: the binding rate result in test [1] is “A (A binding rate of 80% or more is rated “A”)”. Also, the IC50 in test [2] is 17.4 nM; in test [3], 191 nM.

On to `CO[C@H]1CC[C@H](NC/C=C/C(=O)Nc2c(F)cc(C(=O)c3cc(CC#N)c4c(-c5c(C)cc6c(nc(C)n6C)c5Cl)cccn34)cc2F)CC1` [Example 108, (E)-N-(4-(8-(4-chloro-1,2,6-trimethyl-1H-benzo[d]imidazol-5-yl)-1-(cyanomethyl)indolizine-3-carbonyl)-2,6-difluorophenyl)-4-(((1r,4r)-4-methoxycyclohexyl)amino)but-2-enamide], for which the binding rate entry in test [1] is listed as “A (A binding rate of 80% or more is rated “A”)”. For the same compound, the IC50 in test [2] came out at 40.5 nM; in test [3] (Homo sapiens, MIA PaCa-2, 72 h), 77.7 nM.

For `CO[C@H]1CC[C@H](NC/C=C/C(=O)Nc2c(F)cc(C(=O)c3ccc4c(-c5c(C(F)(F)F)cc6c(nc(C)n6C)c5Cl)cccn34)c(F)c2F)CC1` [Example 104, (E)-N-(4-(8(4-chloro-1,2-dimethyl-6-(trifluoromethyl)-1H-benzo[d]imidazol-5-yl)indolizine-3-carbonyl)-2,3,6-trifluorophenyl)-4-(((1r,4r)-4-methoxycyclohexyl)amino)but-2-enamide], in test [1], the binding rate entry was “A (A binding rate of 80% or more is rated “A”)”. The half-maximal inhibitory concentration (IC50) in test [2] was 78.9 nM; in test [3] (Homo sapiens, MIA PaCa-2, 72 h) it was 90.4 nM.

Turning to `CO[C@H]1CC[C@H](NC/C=C/C(=O)Nc2c(F)cc(C(=O)c3ccc4c(-c5c(C6CC6)cc6c(nc(C)n6C)c5Cl)cccn34)cc2F)CC1` [Example 38], in test [1], the binding rate entry is recorded as “A (A binding rate of 80% or more is rated “A”)”. Also, the IC50 in test [2] turned out to be 77 nM; in test [3] (Homo sapiens, MIA PaCa-2, 72 h), 78 nM.

`Cc1nc2cc(-c3cccn4c(C(=O)c5cc(F)c(NC(=O)/C=C/CNC6CCOC(C)(C)C6)c(F)c5)ccc34)c(C(F)(F)F)cc2n1C` (stereo not drawn) [Example 66]: the binding rate result in test [1] is “A (A binding rate of 80% or more is rated “A”)”. Also, the IC50 in test [2] amounted to 70 nM; in test [3] (Homo sapiens, MIA PaCa-2, 72 h) it was 97 nM.

With `Cc1nc2cc(-c3cccn4c(C(=O)c5cc(F)c(NC(=O)/C=C/CN[C@H]6CC[C@H](O)CC6)c(F)c5)ccc34)c(C(F)(F)F)cc2n1C` [Example 55], in test [1], the binding rate entry is “A (A binding rate of 80% or more is rated “A”)”. Besides, the IC50 in test [2] amounted to 41 nM; in test [3] (Homo sapiens, MIA PaCa-2, 72 h), 88 nM.

As for `CO[C@H]1CC[C@H](NC/C=C/C(=O)Nc2c(F)cc(C(=O)c3ccc4c(-c5c(C(F)(F)F)cc6c(ncn6C)c5Cl)cccn34)cc2F)CC1` (single isomer, unassigned) [Example 28-2, (E)-N-(4-(8-(4-chloro-1-methyl-6-(trifluoromethyl)-1H-benzo[d]imidazol-5-yl)indolizine-3-carbonyl)-2,6-difluorophenyl)-4-(((1r,4r)-4-methoxycyclohexyl)amino)but-2-enamide], in test [1], the binding rate entry is “A (A binding rate of 80% or more is rated “A”)”. The IC50 in test [2] stood at 800 nM; in test [3], 940 nM.

Consider `COc1cc(N2CCCC2=O)cc(Cl)c1-c1cccn2c(C(=O)c3cc(F)c(NC(=O)/C=C/CN[C@H]4CC[C@H](OC)CC4)c(F)c3)ccc12` (single isomer, unassigned) [Example 30-1, (E)-N-(4-(8-(2-chloro-6-methoxy-4-(2-oxopyrrolidin-1-yl)phenyl)indolizine-3-carbonyl)-2,6-difluorophenyl)-4-(((1r,4r)-4-methoxycyclohexyl)amino)but-2-enamide], for which the binding rate result in test [1] is on record as “A (A binding rate of 80% or more is rated “A”)”. Further, the figures for the concentration for half-maximal inhibition (IC50) in test [2] and in test [3] were 130 nM and 360 nM, respectively.

In the case of `COc1nc2c(cc1-c1cccn3c(C(=O)c4cc(F)c(NC(=O)/C=C/CN[C@H]5CC[C@H](OC)CC5)c(F)c4)ccc13)nc(C)n2C` [Example 33, (E)-N-(2,6-difluoro-4-(8-(5-methoxy-2,3-dimethyl-3H-imidazo[4,5-b]pyridin-6-yl)indolizine-3-carbonyl)phenyl)-4-(((1r,4r)-4-methoxycyclohexyl)amino)but-2-enamide], in test [1], the binding rate entry is “A (A binding rate of 80% or more is rated “A”)”. Moreover, the IC50 came to 75 nM in test [2] and 140 nM in test [3] (Homo sapiens, MIA PaCa-2, 72 h).

In the case of `Cc1nc2cc(-c3cccn4c(C(=O)c5cc(F)c(NC(=O)/C=C/CNC6CCOCC6)c(F)c5)ccc34)c(C(F)(F)F)cc2n1C` [Example 24, (E)-N-(4-(8(1,2-dimethyl-6-(trifluoromethyl)-1H-benzo[d]imidazol-5-yl)indolizine-3-carbonyl)-2,6-difluorophenyl)-4-((tetrahydro-2H-pyran-4-yl)amino)but-2-enamide], in test [1], the binding rate result was “A (A binding rate of 80% or more is rated “A”)”. Moreover, the half-maximal inhibitory concentration (IC50) in test [2] was found to be 54 nM; in test [3] (Homo sapiens, MIA PaCa-2, 72 h), 54 nM.

In the case of `COc1c(-c2cccn3c(C(=O)c4cc(F)c(NC(=O)/C=C/CN[C@H]5CC[C@H](OC)CC5)c(F)c4)ccc23)c(C(F)(F)F)cc2c1nc(C)n2C` (single isomer, unassigned) [Example 60-2, (E)-N-(2,6-difluoro-4-(8-(4-methoxy-1,2-dimethyl-6-(trifluoromethyl)-1H-benzo[d]imidazol-5-yl)indolizine-3-carbonyl)phenyl)-4-(((1r,4r)-4-methoxycyclohexyl)amino)but-2-enamide], the binding rate result in test [1] is listed as “A (A binding rate of 80% or more is rated “A”)”. For the same compound, the IC50 in test [2] was found to be 26 nM; in test [3], 15 nM.
